From patent publication US4826872A, “Pharmaceutical composition for treatment of cataract” (Takeda Chemical Industries, Ltd., priority 1986, dated 1989)
Where two headings read alike, the source gives them in different places.

Experiments:
[1] = system: lens (cataract after streptozocin administration); assay: Slit-lamp observation of progress of cataract in streptozocin-treated rats (Experiment 1); format: in vivo, male S.D. strain rats; settings: vs control group, lens observed 7-35 days after streptozocin
Experimental: Test procedure: 4-week-old male S.D. strain rats were purchased from Shizuoka Prefecture Animals Farmers' Cooperative, grouped by 10 animals after 5 days of preliminary feeding, and subjected to the test. […] To the vitamin E group, tocopherol acetate (50 mg/ml) was given orally in the same way at the dose of […] (400 mg/kg/day). To the control group, tap water was orally given at 200 μl/100 g.
0 No opacity is observed in the lens.
I The surface of the lens is slightly opaque or small vacuoles appear on the equator.
II Vacuoles increase in number and distribute over the cortex while fusing with each other.
III Vacuoles distributed over the most part of the cortex begin to disappear.
IV Most vacuoles have disappeared, and the whole cortex becomes opaque and translucent.
V The nucleoplasm becomes opaque.
VI The whole lens becomes white turbid.

[2] = system: rabbit lens epithelial cells; assay: Test System I: MDA formed by auto-oxidation of docosahexaenoic acid in culture of lens epithelial cells; format: cell-based; settings: for Amount of MDA in culture medium: 24 hours, normal 1.5, control 29.2
Text: (§1) The inhibitory effect of 2-0-octadecylascorbic acid [compound (I-A)]on lens epithelial cells was studied.
(§2) The lens epithelial cells were obtained from a male white rabbit weighing about 2 kg. Thus, after the […] was sacrificed, the eyeballs were immediately enucleated and subjected to the following aseptic procedures. The eyeballs were washed with Hank's balanced salt solution (pH 7.2), disinfected by 30-second immersion in 80% alcohol and re-washed with the same balanced salt solution. Then, using a small knife, the sclera was cut open from the posterior part of the bulb and the lens was taken out. The retina, vitreous body and the zonule of Zinn were removed. Then, the capsule was punctured and separated from the lens by means of forceps. (The epithelial cells came off with the capsule). The separated capsule was incubated in 0.01% EDTA-0.125% trypsin at 37° C. for 20 minutes After addition of the culture medium mentioned below, the mixture was centrifuged at 1,000 rpm for 2 minutes. By repeating this procedure, the epithelial cells were isolated. These cells were subjected to a few serial passages and used in the experiment. The culture medium was Eagle's medium (MEM) supplemented with 15% bovine fetal serum.
(§3) The following two oxidation systems were used in the experiment: the system using the cytotoxic effect of lipid peroxidation products produced by auto-oxidation of docosahexaenoic acid as an indicator and the system using the cytotoxic effect of activated oxygen species produced by the xanthine-xanthine oxidase system as an indicator. Thus, the confluent cells in dishes were incubated in the following media for 24 hours and the lipid peroxides in the cultures were determined.
(§4) (1) Normal: Cultured in MEM only
(§5) (2) Control: Cultured in MEM supplemented
with 250 μg/ml of docosahexaenoic
(3) Drug: Cultured in MEM supplemented
(§6) The thiobarbituric acid method of Yagi [Anal. Biochem., 95, 351-358 (1979)]was used for Test System I and the method of Nakashima [Chem. Pharm. Bull., 33. 5380-5384 (1985)]and Ohsawa [Anal. Sci., 1, 473-476 (1985)]using 1,3-diphenyl-2-thiobarbituric acid was employed with some modification for Test System II.

[3] = system: rabbit lens epithelial cells; assay: Test System II: MDA formed by activated oxygen species of the xanthine-xanthine oxidase system in culture of lens epithelial cells; format: cell-based; settings: for Amount of MDA in culture medium: 24 hours, normal 0.005, control 0.134
Text: as §1, §2, §3, §4, §5
with 1 mM of xanthine and 0.01
U/ml of xanthine oxidase
(3) Drug: Cultured in MEM supplemented with
1 mM of xanthine and 0.01 U/ml of
xanthine oxidase plus the drug.
as §6

cataract [4] = settings: cited from earlier work
cataract [5] = settings: instillation; many specialists doubtful; cited from earlier work
[6] = cited from Mechanism of Cataract Formation in the Human Lens (1981)

With `CC(=O)Oc1c(C)c(C)c2c(c1C)CCC(C)(CCC[C@H](C)CCC[C@H](C)CCCC(C)C)O2` (stereo partly shown) [vitamin E, tocopherol acetate, reference compound] the “Delay of progress of cataract (lens stage by slit lamp)” value ([1]; oral tocopherol acetate 400 mg/kg/day) was “did not delay the progress of cataract”.

In the case of `Cc1c(C)c2c(c(C)c1O)CCC(C)(CCCC(C)CCCC(C)CCCC(C)C)O2` (racemic) [DL-α-Tocopherol, DL-α-tocopherol, reference compound], the “Amount of MDA in culture medium” value ([2]; drug 125 μg/ml) is reported as 4.2 ± 0.1 n mole/ml, the “Concentration for the same effect relative to compound (I-A)” value ([2]; multiple of the concentration of compound (I-A)) is reported as “about 50 times” and the “Amount of MDA in culture medium” value ([3]; drug 10 μg/ml) is reported as 0.009 ± 0.011 n mole/ml.

For `CN(N=O)C(=O)N[C@@H](C=O)[C@@H](O)[C@H](O)[C@H](O)CO` [streptozocin], the Induction of cataract (cataract [4]; [6]) is given as “induce cataract”.

In the case of `COc1cccc2c1C(=O)c1c(O)c3c(c(O)c1C2=O)C[C@@](O)(C(=O)CO)C[C@@H]3O[C@H]1C[C@H](N)[C@H](O)[C@H](C)O1` [Adriamycin], the Induction of cataract (cataract [4]; [6]) is listed as “induce cataract”.

For `Nc1nc[nH]n1` [amizole], the Induction of cataract (cataract [4]; in vivo) is listed as “induce cataract”.

In the case of `CCCCCCCCCCCCCCCCCCOC1=C(O)C(C(O)CO)OC1=O` (stereo not shown) [Compound (I-A), 2-0-octadecylascorbic acid], the “Amount of MDA in culture medium” value ([2]; drug 2.5 μg/ml) is reported as 6.5 ± 0.1 n mole/ml, the “Amount of MDA in culture medium” value ([2]; drug 5 μg/ml) is reported as 5.8 ± 0.7 n mole/ml and the “Amount of MDA in culture medium” value ([2]; drug 10 μg/ml) is reported as 10.3 ± 0.6 n mole/ml. For the same compound, the “Inhibition of formation of MDA (in words)” value ([2]; higher concentrations) was “inhibitory effect was attenuated”, the “Inhibition of formation of MDA (in words)” value ([2]; low concentrations (<5 μg/ml)) was “strongly inhibit the formation of MDA” and the “Delay of progress of cataract (lens stage by slit lamp)” value ([1]; oral, 100 mg/kg/day first two days then 40 mg/kg/day, Kruskal-Wallis H-test) was “delayed significantly the progress of cataract”. The “Effect relative to DL-α-tocopherol (in words)” value [3] was “as effective as DL-α-tocopherol”, the “Inhibition of MDA (in words)” value [3] was “substantially complete inhibition of MDA” and the “Amount of MDA in culture medium” value ([3]; drug 2 μg/ml) was 0.024 ± 0.015 n mole/ml. The “Amount of MDA in culture medium” value ([3]; drug 10 μg/ml) was 0.016 ± 0.014 n mole/ml and the “Amount of MDA in culture medium” value ([3]; drug 50 μg/ml) was 0.001 ± 0.001 n mole/ml.

In the case of `N[C@@H](CCC(=O)N[C@@H](CS)C(=O)NCC(=O)O)C(=O)O` [glutathione], the “Effectiveness for treatment of cataract” value (cataract [5]) is listed as “effective to some extent”.
